Source: US20010047017A1, “Azole derivatives” (priority 2000, published 2001)
Values after ≈ are worked out from the molar mass of the structure shown.

What was measured:
Test in all cases: In vitro antifungal activity (IC80), broth micro-dilution
Format in all cases: cell-based
[1] = system: Candida albicans (CY1002); conditions: 80% inhibitory concentration, YNB medium with 1% glucose and 0.25% K2HPO4, 1-2 days at 35° C.
Description: (§1) In vitro antifungal activities of 1-(1H-1,2,4-triazol-1-yl)butan-2-ol derivatives of the formula (I) of the present invention were evaluated by determining the 80% inhibitory concentration (IC80), which was calculated as the lowest concentration of an antifungal to inhibit the growth of fungus to 20% turbidity compared with the drug-free control growth spectrophotometrically. The IC80 values were determined by the broth micro-dilution procedure based on NCCLS Approved Standard with the following minor modifications:
(§2) National Committee for Clinical Laboratory Standards. (1997) Reference method for broth dilution antifungal susceptibility testing for yeasts. Approved standard.
(§3) Yeast Nitrogen Base (YNB; Difco Lab.) supplemented with 1% glucose and 0.25% K2HPO4 was used as testing medium for yeast, the same medium solidified with 0.2% low melting point agarose (BRL) was used for filamentous fungi. Inoculum size was 1-3×10^4 cells/ml, and incubation was performed for 1-2 days at 35° C.
(§4) The inhibitory activity of 1-(1H-1,2,4-triazol-1-yl)butan-2-ol derivatives of the formula (I) against in vitro growth of Candida albicans, Aspergillus fumigatus, Rhizopus oryzea, and Absidia corymbifera is summarized in Table 1 comparing with 2-(2,4-difluorophenyl)-1,3-bis(1H-1,2,4-triazol-1-ylmethyl)propan-2-ol (Fluconazole; Pfizer).

[2] = system: Aspergillus fumigatus (437); conditions: 80% inhibitory concentration, YNB medium solidified with 0.2% low melting point agarose, 1-2 days at 35° C.
Description: as §1, §2, §3, §4

[3] = system: Rhizopus oryzea (CFF1118); conditions: 80% inhibitory concentration, YNB medium solidified with 0.2% low melting point agarose, 1-2 days at 35° C., read-out: In vitro antifungal activity (IC80) R. oryzea (CFF1118)
Description: as §1, §2, §3, §4

[4] = system: Absidia corymbifera (CF1001); conditions: Lichtheimia corymbifera; 80% inhibitory concentration; YNB medium solidified with 0.2% low melting point agarose; 1-2 days at 35° C.; read-out: In vitro antifungal activity (IC80) A. cormybifera (CF1001)
Description: as §1, §2, §3, §4

Compound | IC80 [1] [µg/mL] | IC80 [2] [µg/mL] | IC80 [3] [µg/mL] | IC80 [4] [µg/mL]
C[C@@H](c1nc(-c2ccc(-c3csnn3)cc2)ns1)[C@](O)(Cn1cncn1)c1ccc(F)cc1F [Example 1, (2R,3R)-2-(2,4-Difluorophenyl)-3-{3-[4-(1,2,3-thiadiazol-4-yl)phenyl]-1,2,4-thiadiazol-5-yl}-1-(1H-1,2,4-triazol-1-yl)butan-2-ol] | 0.00093 (≈ 0.00187 µM) | 0.11 (≈ 0.221 µM) | 0.0023 (≈ 0.00462 µM) | 0.0057 (≈ 0.0115 µM)
C[C@@H](c1nc(-c2ccc(-c3csnn3)cc2)ns1)[C@](O)(Cn1cncn1)c1cc(F)ccc1F [Example 2, (2R,3R)-2-(2,5-Difluorophenyl)-3-{3-[4-(1,2,3-thiadiazol-4-yl)phenyl]-1,2,4-thiadiazol-5-yl}-1-(1H-1,2,4-triazol-1-yl)butan-2-ol] | 0.0014 (≈ 0.00281 µM) | 0.036 (≈ 0.0724 µM) | 0.011 (≈ 0.0221 µM) | 0.047 (≈ 0.0945 µM)
C[C@@H](c1nc(-c2ccc(-c3csnn3)cc2)cs1)[C@](O)(Cn1cncn1)c1ccc(F)cc1F [Example 3, (2R,3R)-2-(2,4-Difluorophenyl)-3-{4-[4-(1,2,3-thiadiazol-4-yl)phenyl]thiazol-2-yl}-1-(1H-1,2,4-triazol-1-yl)butan-2-ol] | 0.011 (≈ 0.0222 µM) | 0.14 (≈ 0.282 µM) | 0.0029 (≈ 0.00584 µM) | 0.024 (≈ 0.0483 µM)
C[C@@H](c1nc(-c2ccc(-c3csnn3)cc2)cs1)[C@](O)(Cn1cncn1)c1cc(F)ccc1F [Example 4, (2R,3R)-2-(2,5-Difluorophenyl)-3-{4-[4-(1,2,3-thiadiazol-4-yl)phenyl]thiazol-2-yl}-1-(1H-1,2,4-triazol-1-yl)butan-2-ol] | 0.011 (≈ 0.0222 µM) | 0.17 (≈ 0.342 µM) | 0.0028 (≈ 0.00564 µM) | 0.017 (≈ 0.0342 µM)
C[C@@H](c1nc(-c2ccc(-c3nccs3)cc2)cs1)[C@](O)(Cn1cncn1)c1ccc(F)cc1F [Example 5, (2R,3R)-2-(2,4-Difluorophenyl)-3-{4-[4-(thiazol-2-yl)phenyl]thiazol-2-yl}-1-(1H-1,2,4-triazol-1-yl)butan-2-ol] | 0.0059 (≈ 0.0119 µM) | 0.35 (≈ 0.706 µM) | 0.0047 (≈ 0.00948 µM) | 0.3 (≈ 0.605 µM)
Cc1csc(-c2ccc(-c3csc([C@H](C)[C@](O)(Cn4cncn4)c4ccc(F)cc4F)n3)cc2)n1 [Example 6, (2R,3R)-2-(2,4-Difluorophenyl)-3-{4-[4-(4-methylthiazol-2-yl)phenyl]thiazol-2-yl}-1-(1H-1,2,4-triazol-1-yl)butan-2-ol] | 0.021 (≈ 0.0412 µM) | 0.67 (≈ 1.31 µM) | 0.095 (≈ 0.186 µM) | 0.33 (≈ 0.648 µM)
CCc1csc(-c2ccc(-c3csc([C@H](C)[C@](O)(Cn4cncn4)c4ccc(F)cc4F)n3)cc2)n1 [Example 7, (2R,3R)-2-(2,4-Difluorophenyl)-3-{4-[4-(4-ethylthiazol-2-yl)phenyl]thiazol-2-yl}-1-(1H-1,2,4-triazol-1-yl)butan-2-ol] | 0.024 (≈ 0.0458 µM) | 0.39 (≈ 0.745 µM) | 0.069 (≈ 0.132 µM) | 0.34 (≈ 0.649 µM)
CCOC(=O)c1csc(-c2ccc(-c3csc([C@H](C)[C@](O)(Cn4cncn4)c4ccc(F)cc4F)n3)cc2)n1 [Example 9, 2-(4-{2-[(1R,2R)-2-(2,4-Difluorophenyl)-2-hydroxy-1-methyl-3-(1H-1,2,4-triazol-1-yl)propyl]thiazol-4-yl}phenyl)thiazole-4-carboxylic acid ethyl ester] | 0.022 (≈ 0.0388 µM) | 0.5 (≈ 0.881 µM) | 0.036 (≈ 0.0634 µM) | 0.17 (≈ 0.299 µM)
Cc1nc(-c2ccc(-c3csc([C@H](C)[C@](O)(Cn4cncn4)c4ccc(F)cc4F)n3)cc2)ns1 [Example 18, (2R,3R)-2-(2,4-Difluorophenyl)-3-(4-{4-[5-methyl-(1,2,4-thiadiazol-3-yl)]phenyl}thiazol-2-yl)-1-(1H-1,2,4-triazol-1-yl)butan-2-ol] | 0.0031 (≈ 0.00607 µM) | 0.28 (≈ 0.548 µM) | 0.046 (≈ 0.0901 µM) | 0.19 (≈ 0.372 µM)
CCc1nc(-c2ccc(-c3csc([C@H](C)[C@](O)(Cn4cncn4)c4ccc(F)cc4F)n3)cc2)ns1 [Example 19, (2R,3R)-2-(2,4-Difluorophenyl)-3-(4-{4-[5-ethyl-(1,2,4-thiadiazol-3-yl) ]phenyl}thiazol-2-yl)-1-(1H-1,2,4-triazol-1-yl)butan-2-ol] | 0.016 (≈ 0.0305 µM) | 0.3 (≈ 0.572 µM) | 0.044 (≈ 0.0839 µM) | 0.25 (≈ 0.477 µM)
